One data set concerns the target hPar14 (Homo sapiens, UniProt Q9Y237). The data set is described as follows: Protease coupled PPIase assay, hPar14. The conditions noted are these: up to 50 μM. Type of data set: biochemical. How it is done:
FIG. 6 depicts the influence of peptide 17 on the hPar14 PPIase activity. The apparent first order rate constant kobs determined for the cis to trans isomerization of the arginyl-prolyl peptide bond of the substrate Suc-Ala-Arg-Pro-Phe-NH-Np (SEQ ID NO: 3) was measured using the protease coupled PPIase assay. α-Chymotrypsin was used as isomer specific protease. As control, the nonphosphorylated derivative of peptide 17 was used.
PPIase activities were monitored on a Hewlett-Packard 8452A diode array spectrophotometer according to Fischer et al., 1984 and Zhang et al., 2002. The hPar14 PPIase activity was measured with Suc-Ala-Arg-Pro-Phe-NH-Np (SEQ ID NO: 3) (final concentration 75 μM) as substrate and α-chymotrypsin (final concentration 60 μM) as isomer specific protease. PPIase activity of hCyp 18 and FKBP12 were measured using Suc-Ala-Ala-Pro-Phe-NH-Np (SEQ ID NO: 7) as substrate (final concentration 16 μM) and α-chymotrypsin (final concentration 60 μM) as isomer specific protease. PPIase activity of hPin1 was measured with Ac-Ala-Ala-Ser(PO3H2)-Pro-Arg-NH-Np (SEQ ID NO: 4) (final concentration 10 μM) as substrate and trypsin (final concentration 60 μM) as isomer specific protease. Final concentrations of the PPIases were 1.7 μM for hPar14, 4 nM for hPin1, 7 nM for FKBP12 and 9.7 nM for hCyp18. […] Measurements were monitored at 390 nm. […]

The target in a further data set is T1, hPin1 PPIase domain (Homo sapiens, UniProt Q13526).
T1 construct: The hPin1 PPIase domain comprising of amino acid residues Gly45-Glu163 was amplified by PCR; made in house; host or cells: E. coli BL21(DE3) (pET28a)
The data set is described as follows: Isothermal titration calorimetry (ITC), isolated PPIase domain. Type of data set: binding. How it is done: (§1) Calorimetric experiments were performed using a VP-ITC titration calorimeter (MicroCal, Inc, Northampton, Mass.) at 10° C. All solutions were degassed under vacuum prior to use. Solutions of hPin1 and hPin1 PPIase domain were dialyzed against 10 mM Hepes (pH 7.8). The protein concentration in the sample cell was adjusted to 6.5 μM using the same batch of buffer. Protein concentrations were determined as described above. The volume of the protein solution in the sample cell was 1.4 ml. The injection syringe was filled with 300 μl solution of peptide 17 (see table III) (250 μM in the same batch of buffer as used for dialyses). Each titration experiment consisted of a single 1 μl injection followed by 16 identical injections of 5 μl solution of peptide 17.
The stability of peptides 15 and 17 in cytoplasmic extracts from HeLa cells was investigated using MALDI-TOF mass spectrometry and capillary electrophoresis, respectively. In the cytosolic incubation mixture, streptavidin sepharose beads served to isolate peptide 15 fragments after prolonged incubation. […] Therefore, phosphopeptides are useless for evaluating Pin1 functions in vivo unless dephosphorylation can be avoided.
In general terms: ITC needs no label: the signal is the heat of the interaction.

In another data set the target is T2, full length hPin1 (Homo sapiens, UniProt Q13526).
T2 construct: The protease free assay ensures reliable measurement of IC50 values for the full-length hPin1
The data set is described as follows: Isothermal titration calorimetry (ITC), full length hPin1. Type of data set: binding. The procedure: FIGS. 3A-B depicts a thermodynamic characterization of the binding of peptide 17 towards full length hPin1 by isothermal titration calorimetry (ITC). FIG. 3A depicts peaks that represent the heat evolved after injection of peptide 17 into the sample cell containing hPin1. After the 11th injection only the heat of dilution is observed. The experiment was performed at 10 C. FIG. 3B depicts integrals of the corresponding peaks of panel A are plotted against the molar ratio of peptide 17 and hPin1. The solid line represents a nonlinear least squares fit analysis of the binding heat assuming a single binding site model with the following parameters: ΔHbind=−4561±36 cal/mol, TΔSbind=5433±529 cal/mol, n=0.96 (binding stoichiometry) and KAss=5.18×10^7±7×10^6 M^−1 (association constant).
as §1
In principle, minimally four forms of a competing substrate in the presence of hPin1 have to be considered, the free cis and trans isomers together with two Michaelis complexes. This four-site exchange model of PPIase catalysis involves understanding predisposing factors of the stability of hPin1/substrate complexes, expected to be weaker, than the stability for those formed by phosphopeptides lacking substrate properties. The consequent increase in inhibitory potency could be realized by a transition state destabilizing substitution in peptide 15. Previous studies have shown that following C^α-stereocenter inversion of a substrate at the P1 position the parvulins fully retain substrate-like active site affinity for the derivatives while catalytic rate acceleration is abolished (Schiene et al., 1998). […] To optimize solute diffusion after mechanical injection of the Pin1 binding peptides into the viscous Xenopus laevis egg cytosol, the molecular weight of 1376.5 for peptide 16 was reduced to 823.8 for peptide 17. Following chain truncation peptide 17 maintained high affinity for Pin1 (Table III). To ensure domain selectivity, the binding of peptide 17 towards hPin1 was characterized using the isothermal titration calorimetry (ITC). […] The dissociation constant determined with ITC is in the same range as obtained in the protease-free PPIase assay (Table III).

The target of another data set is hCyp18 (Homo sapiens, UniProt P62937). The data set is described as follows: Protease coupled PPIase assay, hCyp18. The class given is biochemical. How it is done: PPIase activities were monitored on a Hewlett-Packard 8452A diode array spectrophotometer according to Fischer et al., 1984 and Zhang et al., 2002. The hPar14 PPIase activity was measured with Suc-Ala-Arg-Pro-Phe-NH-Np (SEQ ID NO: 3) (final concentration 75 μM) as substrate and α-chymotrypsin (final concentration 60 μM) as isomer specific protease. PPIase activity of hCyp 18 and FKBP12 were measured using Suc-Ala-Ala-Pro-Phe-NH-Np (SEQ ID NO: 7) as substrate (final concentration 16 μM) and α-chymotrypsin (final concentration 60 μM) as isomer specific protease. PPIase activity of hPin1 was measured with Ac-Ala-Ala-Ser(PO3H2)-Pro-Arg-NH-Np (SEQ ID NO: 4) (final concentration 10 μM) as substrate and trypsin (final concentration 60 μM) as isomer specific protease. […] Measurements were monitored at 390 nm.
Data analysis was performed by single-exponential nonlinear regression using the SigmaPlot Scientific Graphing System Version 5.00 (Jandel Corp.). […] The rate constant k0 was determined in the absence of Pin1. The first order rate constants kenz was calculated from the equation kenz=kobs−k0. IC50 and Ki values were determined by fitting the first order rate constants kenz against the concentration of the inhibitory peptide by nonlinear regression according to Schutkowski et al., 1995 or a model for tight binding inhibitors (Morrison, 1969).

The mark [1] stands for this setting: ITC, 10° C., single binding site model.

One compound from patent US8258099B2, “Pin1-modulating compounds and methods of use thereof” (Max-Planck-Gesellschaft zur Foerderung der Wissenschaften …, priority 2004, dated 2012) can be followed below.

Molecules are shown by their SMILES. Square brackets hold non-standard residues; d marks the D form. Peptide text beside a SMILES is read from it. d(pT) = C[C@H](OP(=O)(O)O)[C@@H](N)C(=O)O; 2Nal = N[C@@H](Cc1ccc2ccccc2c1)C(=O)O; Pip = O=C(O)[C@@H]1CCCCN1

T2 sequence (Q13526 whole entry): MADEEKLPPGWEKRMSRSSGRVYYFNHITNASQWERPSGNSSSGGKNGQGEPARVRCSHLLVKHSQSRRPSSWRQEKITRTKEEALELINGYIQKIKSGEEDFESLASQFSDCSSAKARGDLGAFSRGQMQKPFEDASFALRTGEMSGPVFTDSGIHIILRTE
T1 sequence (Q13526 45-163): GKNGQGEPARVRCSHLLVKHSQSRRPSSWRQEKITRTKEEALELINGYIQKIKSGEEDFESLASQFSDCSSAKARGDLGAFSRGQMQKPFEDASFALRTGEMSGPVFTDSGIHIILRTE
Chain of hPar14 (Q9Y237 whole entry): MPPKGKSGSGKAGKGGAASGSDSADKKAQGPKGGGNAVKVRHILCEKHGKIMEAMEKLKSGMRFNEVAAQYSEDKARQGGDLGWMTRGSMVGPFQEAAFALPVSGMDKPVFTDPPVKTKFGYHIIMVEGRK
Chain of hCyp18 (P62937 whole entry): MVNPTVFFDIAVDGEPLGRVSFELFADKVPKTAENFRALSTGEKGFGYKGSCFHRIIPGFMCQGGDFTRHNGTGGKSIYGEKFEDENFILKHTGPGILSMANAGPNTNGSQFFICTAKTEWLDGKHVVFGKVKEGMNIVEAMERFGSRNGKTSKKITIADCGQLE

What is called Kd is the equilibrium constant for the complex coming apart. High values mean weaker binding, low ones tighter binding. For `CC(=O)N[C@@H](Cc1ccccc1)C(=O)N[C@@H](C(=O)N1CCCC[C@H]1C(=O)N[C@@H](Cc1ccc2ccccc2c1)C(=O)N[C@@H](CCC(N)=O)C(N)=O)[C@H](C)OP(=O)(O)O` [Peptide 17, Ac-Phe-D-Thr(PO3H2)-Pip-Nal-Gln-NH2] (Ac-F[d(pT)][Pip][2Nal]Q-NH2), the “inhibition of hPar14 PPIase activity” value against hPar14 was “No inhibition”. The “thermodynamic constants, isolated PPIase domain versus full-length hPin1” value at hPin1 PPIase domain was “same thermodynamic constants”. The equilibrium dissociation constant (Kd) on full length hPin1 amounted to 19.3 ± 2.6 nM. Moreover, at full length hPin1 (setting [1]), the “KAss (association constant)” value was 5.18e+07 ± 7e+06 M⁻¹, the “binding enthalpy ΔHbind” value was -4.561 ± 0.036 kcal/mol, the “binding entropy TΔSbind” value amounted to 5.433 ± 0.529 kcal/mol and the “n (binding stoichiometry)” value came to 0.96. Also, at full length hPin1 (Pin1), the “fold tighter binding of D isomer compared to L isomer” value turned out to be 30 fold. For the same compound, the “inhibition of Cyp18” value on hCyp18 was “no inhibition”.
